# Source: patent EP0309541B1, “SULFONYLCARBOXAMIDES” (AMERICAN HOME PRODUCTS CORPORATION, priority 1987, dated 1988)
# pIC50: −log10 of the molar value.
# Key:
# [1] = system: rat carrageenan paw edema; assay: Rat carrageenan paw edema assay; assay type: in vivo; settings: for ED50: oral, standard drugs, rat paw edema, read-out: Oral ED50 (95% C.L.); for % Inhibition at 50 mg/kg (peroral): 1 hour prior to carrageenan, edema at 3 hours
# Protocol: The compounds of the invention are further tested in the rat carrageenan paw edema assay to determine their ability to inhibit the acute inflammatory response.
# (§1) This assay is carried out as follows:
# 140-180 gm male Sprague-Dawley rats, in groups of 6 animals are injected subcutaneously in the right paw with 0.1 ml of 1% carrageenan at zero time. Mercury plethysmographic readings (ml) of the paw are made at zero time and 3 hours later. Test compounds are suspended or dissolved in 0.5% methylcellulose and given perorally 1 hour prior to carrageenan administration.
# The increase in paw volume (edema in ml.) produced by the carrageenan is measured. […] Unpaired Student's t-test is used to determine statistical significance.
# [2] = system: LTD₄ induced bronchoconstriction; assay: Inhibition of leukotriene-induced bronchospasm in guinea pigs in vivo; settings: 10 minutes before induction of bronchospasm, inhibition of % max AUC
# Protocol: The assay of this Example measures the in vivo ability of the compounds of the invention to inhibit the bronchospasm induced in guinea pigs by the exogenously administered leukotrienes C₄ and/or D₄.
# as §1
# Male Hartley strain guinea pigs (350-600g) are anesthetized with pentobarbital sodium (50 mg/kg, i.p.). The jugular vein is cannulated for injection of drugs and the carotid artery for monitoring blood pressure. The trachea is cannulated for artificial ventilation by a miniature Starling pump and for indirect measurement of respiratory volume changes. The animals are then pretreated with succinylcholine (2 mg/kg i.v.) and indomethacin (10 mg/kg i.v. in trizma 8.3 buffer, 9 minutes prior to leukotriene challenge). Submaximal bronchoconstrictor responses are established in control animals by varying the dose-levels of leukotriene. Intravenous dose-levels for LTC₄ range from 0.4 to 0.6 µg/kg and for LTD₄ the range is from 0.3 to 0.5 µg/kg.
# Test drugs (dissolved in a solvent such as propylene glycol, polyethylene glycol 400 or saline) are administered either intraduodenally, by aerosol or intragastrically at 2 or 10 minutes before induction of bronchospasm by administration of either LTC₄ or LTD₄ at the predetermined dose-level. Aerosol of soluble drugs or leukotrienes are produced in-line for 10 seconds only by actuation of an ultrasonic nebulizer (Monaghan). Aerosolized drug dosage is expressed in terms of solution concentration and by a fixed aerosol exposure time (approximately 10 seconds). Control animal receive solvent (2 ml/kg i.d. or appropriate aerosol) in place of drug.
# Respiratory volume changes are determined by a calibrated piston whose travel is recorded, via a linear transducer, on a Beckman Dynograph recorder. Maximal bronchoconstrictor volume is determined by clamping off the trachea at the end of the experiment. Overflow volumes at 1, 3 and 5 minutes are obtained from the recorded charts.
# Student's t-test for unpaired data is used to determine statistical significance (p < 0.05).
# [3] = system: synthesis of the arachidonic acid cyclooxygenase oxidation product PGE₂; assay: Inhibition of PGE₂ synthesis (cyclooxygenase product) by rat polymorphonuclear leukocytes; assay type: cell-based; settings: Leukocyte, rat peritoneal PMN, procedure of Example 4, read-out: IC₅₀
# Protocol: Peritoneal PMN are obtained from female Wistar rats (150-250 g) that received an i.p. injection of 6% glycogen (10 ml). After 24 hours, rats are killed by Co₂ asphyxiation and peritoneal cells are harvested by peritoneal lavage using Ca⁺⁺ and Mg⁺⁺ free Hanks' balanced salt solution (HBSS). The peritoneal exudate is centrifuged at 400 g for 10 minutes. After centrifugation, the lavaged fluid is removed and the cell pellet is resuspended in HBSS containing Ca⁺⁺ and Mg⁺⁺ and 10 mM L-cysteine at a concentration of 2 x 10⁷ cells/ml. To 1 ml portions of cell suspension, test drugs or vehicle are added and incubated at 37°C for 10 minutes. Following this preincubation, the calcium ionophore (10 µM), A23187, is added together with 0.5 µCi [₁₄C] arachidonic acid and further incubated for 10 minutes. The reaction is stopped by the addition of ice cold water (3 ml) and acidifying to pH 3.5. Lipoxygenase products are then extracted twice into diethyl ether. […] After chromatography, the areas associated with 5-HETE standard are identified by autoradiography, cut out and quantitated by liquid scintillation. […]
# In this assay, the procedure of Example 4 is carried out as described. […] After chromatography, the areas associated with the PGE₂ standard are identified by autoradiography, cut out and quantitated by liquid scintillation techniques.
# The results are calculated as in Example 4.
# [4] = system: synthesis of 5-HETE by rat glycogen elicited polymorphonuclear leukocytes; assay: Inhibition of 5-HETE synthesis by rat glycogen elicited polymorphonuclear leukocytes; assay type: cell-based; settings: Leukocyte, rat peritoneal PMN, A23187 10 µM, [14C] arachidonic acid, read-out: IC₅₀
# Protocol: The assay of this Example measures the ability of the compounds of the invention to inhibit the synthesis of 5-HETE by rat glycogen elicited polymorphonuclear leukocytes.
# The assay is carried out as follows:
# Peritoneal PMN are obtained from female Wistar rats (150-250 g) that received an i.p. injection of 6% glycogen (10 ml). After 24 hours, rats are killed by Co₂ asphyxiation and peritoneal cells are harvested by peritoneal lavage using Ca⁺⁺ and Mg⁺⁺ free Hanks' balanced salt solution (HBSS). The peritoneal exudate is centrifuged at 400 g for 10 minutes. After centrifugation, the lavaged fluid is removed and the cell pellet is resuspended in HBSS containing Ca⁺⁺ and Mg⁺⁺ and 10 mM L-cysteine at a concentration of 2 x 10⁷ cells/ml. To 1 ml portions of cell suspension, test drugs or vehicle are added and incubated at 37°C for 10 minutes. Following this preincubation, the calcium ionophore (10 µM), A23187, is added together with 0.5 µCi [₁₄C] arachidonic acid and further incubated for 10 minutes. The reaction is stopped by the addition of ice cold water (3 ml) and acidifying to pH 3.5. Lipoxygenase products are then extracted twice into diethyl ether. […] After chromatography, the areas associated with 5-HETE standard are identified by autoradiography, cut out and quantitated by liquid scintillation.
# [5] = 25 mg/kg intraduodenally administered
# [6] = 25 mg/kg intragastrically administered
SMILES,ED50 [1] [mg/kg],"% Inhibition [2, 5] [%]","% Inhibition [2, 6] [%]",% Inhibition at 50 mg/kg (peroral) [1] [%],pIC50 [3],pIC50 [4]
CCCCC1C(=O)N(c2ccccc2)N(c2ccccc2)C1=O [Phenylbutazone],26.2,,,,,
"Cc1ccc(S(=O)(=O)NC(=O)CCc2cccc(OCc3ccc4ccccc4n3)c2)cc1 [Example 1, N-[(4-Methylphenyl)sulfonyl]-3-(2-quinolylmethoxy)benzenepropanamide]",,97,66,40,,
"Cc1ccc(S(=O)(=O)NC(=O)c2cccc(OCc3ccc4ccccc4n3)c2)cc1 [Example 3, N-[(4-Methylphenyl)sulfonyl]-3-(2-quinolinylmethoxy)benzamide]",,97,91,50,4.89,5.22
CC(=O)Oc1ccccc1C(=O)O [Aspirin],145,,,,,
COc1ccc2c(c1)c(CC(=O)O)c(C)n2C(=O)c1ccc(Cl)cc1 [Indomethacin],3.7,,,,,
